Activity calls are given as the source filed them. How the calls were made is not given here.
Test system: rodent lifetime carcinogenesis bioassay, tumor incidence TD50
Assay: chronic cancer bioassays in animals – CPDB, compiled studies (AID 1745844)

In the case of N=C1C=CC(=C(c2ccc(N)cc2)c2ccc(N)cc2)C=C1, the carcinogen call (hamster, strain Syrian Golden, females, by gavage, site: any site (literature study), lesion: several types, types named in the paper, dosed 84 weeks, study length 84 weeks) was “negative (inactive)”, the carcinogen call (hamster, strain Syrian Golden, males, by gavage, site: any site (literature study), lesion: several types, types named in the paper, dosed 84 weeks, study length 84 weeks) was “negative (inactive)” and the TD50 (mouse, strain B6C3F1, females, in feed, site: Harderian gland, lesion: adenoma, NOS + carcinoma, NOS + cystadenoma, NOS, dosed 103 weeks, study length 105 weeks) was 388 mg/kg/day. For the same compound, the TD50 (mouse, strain B6C3F1, females, in feed, site: Harderian gland, lesion: adenoma, NOS + cystadenoma, NOS, dosed 103 weeks, study length 105 weeks) was 316 mg/kg/day, the TD50 (mouse, strain B6C3F1, females, in feed, site: Harderian gland, lesion: adenoma, dosed 103 weeks, study length 105 weeks) was 548 mg/kg/day and the TD50 (mouse, strain B6C3F1, females, in feed, site: adrenal gland + liver, lesion: pheochromocytoma + pheochromocytoma, malignant + hepatocellular carcinoma, dosed 103 weeks, study length 105 weeks) was 28.8 mg/kg/day. For the same compound, the TD50 (mouse, strain B6C3F1, females, in feed, site: adrenal gland, lesion: pheochromocytoma + pheochromocytoma, malignant, dosed 103 weeks, study length 105 weeks) was 90.6 mg/kg/day, the TD50 (mouse, strain B6C3F1, females, in feed, site: all sites, lesion: malignant lymphoma, histiocytic type + malignant lymphoma, mixed type + malignant lymphoma, lymphocytic type + malignant lymph, dosed 103 weeks, study length 105 weeks) was 62.2 mg/kg/day and the TD50 (mouse, strain B6C3F1, females, in feed, site: all sites, lesion: malignant lymphoma, histiocytic type, dosed 103 weeks, study length 105 weeks) was 380 mg/kg/day. The TD50 (mouse, strain B6C3F1, females, in feed, site: all sites, lesion: malignant lymphoma, lymphocytic type, dosed 103 weeks, study length 105 weeks) was 151 mg/kg/day, the TD50 (mouse, strain B6C3F1, females, in feed, site: any site (literature study), lesion: several types, types named in the paper, dosed 103 weeks, study length 105 weeks) was 23.4 mg/kg/day and the TD50 (mouse, strain B6C3F1, females, in feed, site: liver, lesion: hepatocellular adenoma + hepatocellular carcinoma + neoplastic nodule, dosed 103 weeks, study length 105 weeks) was 20.3 mg/kg/day. For the same compound, the TD50 (mouse, strain B6C3F1, females, in feed, site: liver, lesion: hepatocellular adenoma + hepatocellular carcinoma, dosed 103 weeks, study length 105 weeks) was 20.3 mg/kg/day, the TD50 (mouse, strain B6C3F1, females, in feed, site: liver, lesion: hepatocellular adenoma, dosed 103 weeks, study length 105 weeks) was 35.9 mg/kg/day and the TD50 (mouse, strain B6C3F1, females, in feed, site: liver, lesion: hepatocellular carcinoma, dosed 103 weeks, study length 105 weeks) was 32.3 mg/kg/day. The TD50 (mouse, strain B6C3F1, females, in feed, site: lung, lesion: alveolar/bronchiolar adenoma + alveolar/bronchiolar carcinoma, dosed 103 weeks, study length 105 weeks) was 302 mg/kg/day, the TD50 (mouse, strain B6C3F1, females, in feed, site: lung, lesion: alveolar/bronchiolar adenoma, dosed 103 weeks, study length 105 weeks) was 326 mg/kg/day and the TD50 (mouse, strain B6C3F1, males, in feed, site: all sites, lesion: malignant lymphoma, mixed type, dosed 103 weeks, study length 104 weeks) was 610 mg/kg/day. For the same compound, the TD50 (mouse, strain B6C3F1, males, in feed, site: any site (literature study), lesion: several types, types named in the paper, dosed 103 weeks, study length 104 weeks) was 222 mg/kg/day, the TD50 (mouse, strain B6C3F1, males, in feed, site: liver, lesion: hepatocellular adenoma + hepatocellular carcinoma + neoplastic nodule, dosed 103 weeks, study length 104 weeks) was 116 mg/kg/day and the TD50 (mouse, strain B6C3F1, males, in feed, site: liver, lesion: hepatocellular adenoma + hepatocellular carcinoma, dosed 103 weeks, study length 104 weeks) was 116 mg/kg/day. It also gave a TD50 (mouse, strain B6C3F1, males, in feed, site: liver, lesion: hepatocellular carcinoma, dosed 103 weeks, study length 104 weeks) of 127 mg/kg/day, a TD50 (rat, strain Fischer 344, females, in feed, site: Zymbal's gland, lesion: carcinoma, NOS, dosed 103 weeks, study length 104 weeks) of 190 mg/kg/day and a TD50 (rat, strain Fischer 344, females, in feed, site: any site (literature study), lesion: several types, types named in the paper, dosed 103 weeks, study length 104 weeks) of 17.8 mg/kg/day. For the same compound, the TD50 (rat, strain Fischer 344, females, in feed, site: liver, lesion: hepatocellular adenoma + hepatocellular carcinoma + neoplastic nodule, dosed 103 weeks, study length 104 weeks) was 189 mg/kg/day, the TD50 (rat, strain Fischer 344, females, in feed, site: liver, lesion: hepatocellular carcinoma + neoplastic nodule, dosed 103 weeks, study length 104 weeks) was 189 mg/kg/day and the TD50 (rat, strain Fischer 344, females, in feed, site: mammary gland, lesion: adenocarcinoma, NOS + adenoma, NOS + fibroadenoma, dosed 103 weeks, study length 104 weeks) was 25.4 mg/kg/day. The TD50 (rat, strain Fischer 344, females, in feed, site: mammary gland, lesion: adenocarcinoma, NOS + adenoma, NOS, dosed 103 weeks, study length 104 weeks) was 156 mg/kg/day, the TD50 (rat, strain Fischer 344, females, in feed, site: mammary gland, lesion: adenocarcinoma, NOS, dosed 103 weeks, study length 104 weeks) was 232 mg/kg/day and the TD50 (rat, strain Fischer 344, females, in feed, site: mammary gland, lesion: fibroadenoma, dosed 103 weeks, study length 104 weeks) was 27.9 mg/kg/day. It also gave a TD50 (rat, strain Fischer 344, females, in feed, site: subcutaneous tissue + thyroid gland + Zymbal's gland, lesion: fibroma + follicular-cell adenoma + follicular-cell carcinoma + carcinoma, NOS, dosed 103 weeks, study length 104 weeks) of 32.2 mg/kg/day, a TD50 (rat, strain Fischer 344, females, in feed, site: subcutaneous tissue, lesion: fibroma, dosed 103 weeks, study length 104 weeks) of 44.5 mg/kg/day and a TD50 (rat, strain Fischer 344, females, in feed, site: subcutaneous tissue, lesion: fibrosarcoma + fibroma + sarcoma, NOS, dosed 103 weeks, study length 104 weeks) of 40.9 mg/kg/day. The TD50 (rat, strain Fischer 344, females, in feed, site: subcutaneous tissue, lesion: fibrosarcoma + fibroma, dosed 103 weeks, study length 104 weeks) was 42.8 mg/kg/day, the TD50 (rat, strain Fischer 344, females, in feed, site: thyroid gland, lesion: follicular-cell adenoma + follicular-cell carcinoma, dosed 103 weeks, study length 104 weeks) was 154 mg/kg/day and the TD50 (rat, strain Fischer 344, females, in feed, site: thyroid gland, lesion: follicular-cell adenoma, dosed 103 weeks, study length 104 weeks) was 318 mg/kg/day. The TD50 (rat, strain Fischer 344, females, in feed, site: uterus, lesion: endometrial stromal sarcoma, dosed 103 weeks, study length 104 weeks) was 133 mg/kg/day, the TD50 (rat, strain Fischer 344, males, in feed, site: Zymbal's gland, lesion: carcinoma, NOS, dosed 103 weeks, study length 104 weeks) was 124 mg/kg/day and the TD50 (rat, strain Fischer 344, males, in feed, site: any site (literature study), lesion: several types, types named in the paper, dosed 103 weeks, study length 104 weeks) was 15.7 mg/kg/day. It also gave a TD50 (rat, strain Fischer 344, males, in feed, site: body cavities + multiple sites + multiple organs + tunica vaginalis, lesion: mesothelioma, NOS + mesothelioma, malignant, dosed 103 weeks, study length 104 weeks) of 184 mg/kg/day, a TD50 (rat, strain Fischer 344, males, in feed, site: liver + skin + subcutaneous tissue + thyroid gland + Zymbal's gland, lesion: hepatocellular carcinoma + sebaceous adenoma + squamous-cell carcinoma + trichoepithelioma + fibroma + follicular-cell adenoma + fol, dosed 103 weeks, study length 104 weeks) of 21.2 mg/kg/day and a TD50 (rat, strain Fischer 344, males, in feed, site: liver, lesion: bile duct adenoma + bile duct carcinoma, dosed 103 weeks, study length 104 weeks) of 557 mg/kg/day. The TD50 (rat, strain Fischer 344, males, in feed, site: liver, lesion: hepatocellular adenoma + hepatocellular carcinoma + neoplastic nodule, dosed 103 weeks, study length 104 weeks) was 41.5 mg/kg/day, the TD50 (rat, strain Fischer 344, males, in feed, site: liver, lesion: hepatocellular carcinoma + neoplastic nodule, dosed 103 weeks, study length 104 weeks) was 41.5 mg/kg/day and the TD50 (rat, strain Fischer 344, males, in feed, site: liver, lesion: hepatocellular carcinoma, dosed 103 weeks, study length 104 weeks) was 140 mg/kg/day. The TD50 (rat, strain Fischer 344, males, in feed, site: liver, lesion: neoplastic nodule, dosed 103 weeks, study length 104 weeks) was 62.2 mg/kg/day, the TD50 (rat, strain Fischer 344, males, in feed, site: lung, lesion: alveolar/bronchiolar adenoma + alveolar/bronchiolar carcinoma, dosed 103 weeks, study length 104 weeks) was 254 mg/kg/day and the TD50 (rat, strain Fischer 344, males, in feed, site: lung, lesion: alveolar/bronchiolar adenoma, dosed 103 weeks, study length 104 weeks) was 281 mg/kg/day. The TD50 (rat, strain Fischer 344, males, in feed, site: pancreatic islets, lesion: islet-cell adenoma + islet-cell carcinoma, dosed 103 weeks, study length 104 weeks) was 152 mg/kg/day, the TD50 (rat, strain Fischer 344, males, in feed, site: pancreatic islets, lesion: islet-cell carcinoma, dosed 103 weeks, study length 104 weeks) was 252 mg/kg/day and the TD50 (rat, strain Fischer 344, males, in feed, site: skin, lesion: basal-cell carcinoma, dosed 103 weeks, study length 104 weeks) was 385 mg/kg/day. For the same compound, the TD50 (rat, strain Fischer 344, males, in feed, site: skin, lesion: sebaceous adenoma, dosed 103 weeks, study length 104 weeks) was 424 mg/kg/day, the TD50 (rat, strain Fischer 344, males, in feed, site: skin, lesion: squamous-cell carcinoma + squamous-cell papilloma, dosed 103 weeks, study length 104 weeks) was 93.8 mg/kg/day and the TD50 (rat, strain Fischer 344, males, in feed, site: skin, lesion: squamous-cell carcinoma, dosed 103 weeks, study length 104 weeks) was 130 mg/kg/day. The TD50 (rat, strain Fischer 344, males, in feed, site: skin, lesion: trichoepithelioma, dosed 103 weeks, study length 104 weeks) was 221 mg/kg/day, the TD50 (rat, strain Fischer 344, males, in feed, site: subcutaneous tissue, lesion: fibroma, dosed 103 weeks, study length 104 weeks) was 35.3 mg/kg/day and the TD50 (rat, strain Fischer 344, males, in feed, site: subcutaneous tissue, lesion: fibrosarcoma + fibroma + sarcoma, NOS, dosed 103 weeks, study length 104 weeks) was 33.4 mg/kg/day. The TD50 (rat, strain Fischer 344, males, in feed, site: subcutaneous tissue, lesion: fibrosarcoma + fibroma, dosed 103 weeks, study length 104 weeks) was 33 mg/kg/day, the TD50 (rat, strain Fischer 344, males, in feed, site: testis, lesion: interstitial-cell tumor, dosed 103 weeks, study length 104 weeks) was 15.6 mg/kg/day and the TD50 (rat, strain Fischer 344, males, in feed, site: thyroid gland, lesion: follicular-cell adenoma + follicular-cell carcinoma, dosed 103 weeks, study length 104 weeks) was 57 mg/kg/day. For the same compound, the TD50 (rat, strain Fischer 344, males, in feed, site: thyroid gland, lesion: follicular-cell adenoma, dosed 103 weeks, study length 104 weeks) was 176 mg/kg/day, the TD50 (rat, strain Fischer 344, males, in feed, site: thyroid gland, lesion: follicular-cell carcinoma, dosed 103 weeks, study length 104 weeks) was 73.9 mg/kg/day and the carcinogen call (rat, strain Sprague-Dawley, females, by gavage, site: any site (literature study), lesion: several types, types named in the paper, dosed 127 weeks, study length 127 weeks) was “negative (inactive)”. For the same compound, the carcinogen call (rat, strain Sprague-Dawley, males, by gavage, site: any site (literature study), lesion: several types, types named in the paper, dosed 124 weeks, study length 124 weeks) was “negative (inactive)”.
In the case of Nc1ccc(N(CCO)CCO)cc1, the TD50 (rat, strain F344/DuCrj, females, in feed, site: liver, lesion: hepatocellular adenoma, dosed 104 weeks, study length 104 weeks) was 7310 mg/kg/day (inactive), the carcinogen call (rat, strain F344/DuCrj, males, in feed, site: liver, lesion: hepatocellular adenoma, dosed 104 weeks, study length 104 weeks) was “negative (inactive)” and the carcinogen call (rat, strain F344/DuCrj, males, in feed, site: liver, lesion: hepatocellular carcinoma, dosed 104 weeks, study length 104 weeks) was “negative (inactive)”.
[O]=[Cr][O][Cr]=[O] was tested, and the carcinogen call (rat, strain BD, both sexes, in feed, site: hypophysis, lesion: adenoma, dosed 85 weeks, study length 187 weeks) was “negative (inactive)”, the carcinogen call (rat, strain BD, both sexes, in feed, site: mammary gland, lesion: carcinoma, dosed 85 weeks, study length 187 weeks) was “negative (inactive)” and the TD50 (rat, strain BD, both sexes, in feed, site: mammary gland, lesion: fibroadenoma, dosed 85 weeks, study length 187 weeks) was 237000 mg/kg/day (inactive).
NNCCc1ccccc1 showed a TD50 (mouse, strain Swiss albino, females, in drinking water, site: blood vessels, lesion: angiosarcoma, dosed 93 weeks, study length 93 weeks) of 20.4 mg/kg/day, a TD50 (mouse, strain Swiss albino, females, in drinking water, site: blood vessels, lesion: several types, types named in the paper, dosed 93 weeks, study length 93 weeks) of 14.6 mg/kg/day and a TD50 (mouse, strain Swiss albino, females, in drinking water, site: fat, lesion: angiosarcoma, dosed 93 weeks, study length 93 weeks) of 23.7 mg/kg/day. It also gave a TD50 (mouse, strain Swiss albino, females, in drinking water, site: liver, lesion: several types, types named in the paper, dosed 93 weeks, study length 93 weeks) of 278 mg/kg/day, a TD50 (mouse, strain Swiss albino, females, in drinking water, site: lung, lesion: adenoma, dosed 93 weeks, study length 93 weeks) of 25.8 mg/kg/day and a TD50 (mouse, strain Swiss albino, females, in drinking water, site: lung, lesion: angiosarcoma, dosed 93 weeks, study length 93 weeks) of 123 mg/kg/day. It also gave a TD50 (mouse, strain Swiss albino, females, in drinking water, site: lung, lesion: several types, types named in the paper, dosed 93 weeks, study length 93 weeks) of 27.5 mg/kg/day, a TD50 (mouse, strain Swiss albino, females, in drinking water, site: muscle, lesion: angiosarcoma, dosed 93 weeks, study length 93 weeks) of 21.7 mg/kg/day and a TD50 (mouse, strain Swiss albino, females, in drinking water, site: subcutaneous tissue, lesion: angiosarcoma, dosed 93 weeks, study length 93 weeks) of 19.9 mg/kg/day. The carcinogen call (mouse, strain Swiss albino, males, in drinking water, site: liver, lesion: several types, types named in the paper, dosed 99 weeks, study length 99 weeks) was “negative (inactive)”, the TD50 (mouse, strain Swiss albino, males, in drinking water, site: lung, lesion: adenoma, dosed 99 weeks, study length 99 weeks) was 30 mg/kg/day (inactive) and the TD50 (mouse, strain Swiss albino, males, in drinking water, site: lung, lesion: several types, types named in the paper, dosed 99 weeks, study length 99 weeks) was 33.1 mg/kg/day (inactive).

— PubChem BioAssay AID1745844 (Carcinogenic Potency Database (CPDB), 2022)
